One experiment has as its target T1, human 5-HT6 receptor (Homo sapiens, UniProt P50406).
T1 construct: expressed in transfected cells
The experiment in a line: GPCR radioligand binding assay, [3H]-LSD displacement, HEK293 membranes.

A further experiment concerns the target T2, human 5-HT1A receptor (Homo sapiens, UniProt P08908).
T2 construct: expressed in transfected cells
T2 sequence (P08908 1-422): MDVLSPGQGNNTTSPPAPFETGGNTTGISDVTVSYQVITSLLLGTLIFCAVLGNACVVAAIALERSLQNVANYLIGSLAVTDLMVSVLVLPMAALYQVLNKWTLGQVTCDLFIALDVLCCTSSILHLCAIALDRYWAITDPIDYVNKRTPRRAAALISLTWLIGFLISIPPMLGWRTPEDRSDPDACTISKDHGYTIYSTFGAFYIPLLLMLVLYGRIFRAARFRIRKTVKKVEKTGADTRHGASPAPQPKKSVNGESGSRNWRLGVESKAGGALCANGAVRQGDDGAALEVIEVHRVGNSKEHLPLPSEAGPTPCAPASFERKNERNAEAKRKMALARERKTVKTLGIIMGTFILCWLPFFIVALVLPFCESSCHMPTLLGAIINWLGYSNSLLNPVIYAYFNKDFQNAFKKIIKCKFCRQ
Nature of the experiment: GPCR radioligand binding assay, [3H]-8-OH-DPAT displacement, HEK293 membranes.

The target in the next experiment is T3, human 5-HT7b receptor (Homo sapiens, UniProt P34969).
T3 construct: expressed in transfected cells
The experiment in a line: GPCR radioligand binding assay, [3H]-5-CT displacement, HEK293 membranes.

The next experiment concerns the target T4, human thrombin (Homo sapiens, UniProt P00734).
T4 construct: human thrombin; purchased Sigma-Aldrich
Nature of the experiment: Protease inhibitory assay, chromogenic substrate S-2238. In kind it is biochemical. Conditions: for Ki: plate layout, label = plate position, Cheng-Prusoff, Km 2.6 µM, read-out: Thrombin Ki.

Another experiment has as its target T5, bovine factor Xa (Bos taurus, UniProt P00743).
T5 construct: bovine factor Xa, Chromogenix, 2 nkat/mL; purchased Chromogenix
Nature of the experiment: Protease inhibitory assay, chromogenic substrate S-2222. In kind it is biochemical. Conditions: for vinit: replicate values.

[1] abbreviates: 10 µM, read-out: 5-HT6 % Inhibition by plate position.
[2] abbreviates: 5-HT6, average of exp_1 and exp_2, read-out: %inh 5-HT6 average.
The mark [3] stands for this setting: 5-HT6, average, values below 0 and above 100% were set as 0 and 100, read-out: %inh 5-HT6 corrected*.
[4] abbreviates: 5-HT6, replicate exp_1, read-out: %inh 5-HT6 exp_1.
Where [5] appears, read: 5-HT6, replicate exp_2, read-out: %inh 5-HT6 exp_2.
Setting [6] is: 10 µM, read-out: 5-HT1A % Inhibition by plate position.
Where [7] appears, read: 5-HT1A, average of exp_1 and exp_2, read-out: %inh 5-HT1A average.
[8] abbreviates: 5-HT1A, average, values below 0 and above 100% were set as 0 and 100, read-out: %inh 5-HT1A corrected*.
The mark [9] stands for this setting: 5-HT1A, replicate exp_1, read-out: %inh 5-HT1A exp_1.
The mark [10] stands for this setting: 5-HT1A, replicate exp_2, read-out: %inh 5-HT1A exp_2.
[11] abbreviates: 10 µM, read-out: 5-HT7 % Inhibition by plate position.
[12] abbreviates: 5-HT7, average of exp_1 and exp_2, read-out: %inh 5-HT7 average.
Where [13] appears, read: 5-HT7, average, values below 0 and above 100% were set as 0 and 100, read-out: %inh 5-HT7 corrected*.
Where [14] appears, read: 5-HT7, replicate exp_1, read-out: %inh 5-HT7 exp_1.
[15] abbreviates: 5-HT7, replicate exp_2, read-out: %inh 5-HT7 exp_2.
[16] abbreviates: FactorXa Ki determination, substrate 100 µM, cmpd conc 200 µM.
Where [17] appears, read: FactorXa Ki determination, substrate 200 µM, cmpd conc 200 µM.
The mark [18] stands for this setting: FactorXa primary screening, substrate 100 µM, cmpd conc 200 µM.

The record followed here is publication PMC8159961, “Exploring protein hotspots by optimized fragment pharmacophores” (Nature Communications, 2021).

Several values for one entry are separate records, joined by “and”; a condition that tells them apart may be missing. Equal values may be shown once. Read-outs that look alike come from different tables or passages of the source.

T1 sequence (P50406 whole entry): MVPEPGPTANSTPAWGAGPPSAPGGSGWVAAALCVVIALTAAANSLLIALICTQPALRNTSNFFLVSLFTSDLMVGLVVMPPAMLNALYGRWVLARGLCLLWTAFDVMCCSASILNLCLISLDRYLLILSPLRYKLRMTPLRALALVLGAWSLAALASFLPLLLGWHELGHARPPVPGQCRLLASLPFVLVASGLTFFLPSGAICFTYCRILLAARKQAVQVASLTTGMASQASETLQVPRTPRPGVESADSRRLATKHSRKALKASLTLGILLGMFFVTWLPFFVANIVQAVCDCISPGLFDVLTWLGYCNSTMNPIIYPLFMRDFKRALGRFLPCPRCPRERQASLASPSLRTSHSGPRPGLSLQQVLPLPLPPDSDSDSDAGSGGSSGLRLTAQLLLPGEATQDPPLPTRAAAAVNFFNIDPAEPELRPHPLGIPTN
T5 sequence (P00743 234-492 limits assumed): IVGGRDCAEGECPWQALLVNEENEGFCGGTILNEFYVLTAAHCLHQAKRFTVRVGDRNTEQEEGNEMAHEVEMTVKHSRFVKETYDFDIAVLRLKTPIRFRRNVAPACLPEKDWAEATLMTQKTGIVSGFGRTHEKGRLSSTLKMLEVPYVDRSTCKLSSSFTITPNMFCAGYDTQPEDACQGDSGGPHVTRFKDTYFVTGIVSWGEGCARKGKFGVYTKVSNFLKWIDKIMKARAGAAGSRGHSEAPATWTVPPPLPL
T5 sequence (P00743 41-180 partner limits assumed): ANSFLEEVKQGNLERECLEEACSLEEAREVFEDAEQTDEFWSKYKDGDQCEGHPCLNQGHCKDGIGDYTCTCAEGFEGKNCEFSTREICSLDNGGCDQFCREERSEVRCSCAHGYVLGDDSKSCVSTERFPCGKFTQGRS
T3 sequence (P34969 1-432): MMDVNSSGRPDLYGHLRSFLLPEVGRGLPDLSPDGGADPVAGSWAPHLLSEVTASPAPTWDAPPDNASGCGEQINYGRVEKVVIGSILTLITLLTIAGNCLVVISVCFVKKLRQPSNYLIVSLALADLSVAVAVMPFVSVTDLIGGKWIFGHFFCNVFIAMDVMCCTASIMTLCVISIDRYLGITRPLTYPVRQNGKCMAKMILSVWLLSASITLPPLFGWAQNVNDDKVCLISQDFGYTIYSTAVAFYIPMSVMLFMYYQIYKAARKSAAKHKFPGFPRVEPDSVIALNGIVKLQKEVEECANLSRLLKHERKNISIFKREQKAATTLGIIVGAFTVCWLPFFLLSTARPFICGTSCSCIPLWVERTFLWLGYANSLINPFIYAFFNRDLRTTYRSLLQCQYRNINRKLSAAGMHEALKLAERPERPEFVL

For `O=C(O)C1CCN(c2ncccn2)CC1` [E9], the inhibition at 10 µM amounted to 29% on human 5-HT6 receptor (setting [1]); 29% at human 5-HT6 receptor (setting [2]); 29% at human 5-HT6 receptor (setting [3]); 32% at human 5-HT6 receptor (setting [4]); 26% at human 5-HT6 receptor (setting [5]); 3% on human 5-HT1A receptor (setting [6]). For the same molecule, the inhibition at 10 µM at human 5-HT1A receptor (setting [7]) is 3%; on human 5-HT1A receptor (setting [8]), 3%; on human 5-HT1A receptor (setting [9]), 11%; at human 5-HT1A receptor (setting [10]) it was -4.35%; on human 5-HT7b receptor (setting [11]), 0%; on human 5-HT7b receptor (setting [12]), -8.55%. For the same molecule, the inhibition at 10 µM was 0% on human 5-HT7b receptor (setting [13]), 3.77% at human 5-HT7b receptor (setting [14]) and -21% at human 5-HT7b receptor (setting [15]). In addition, on human thrombin, the Ki is 76 µM.

Consider `O=C(c1ccccc1F)N1CCNCC1` [E12], for which the inhibition at 10 µM on human 5-HT6 receptor (setting [1]) came out at 17%; on human 5-HT6 receptor (setting [2]) it was 17%; at human 5-HT6 receptor (setting [3]), 17%; at human 5-HT6 receptor (setting [4]), 12%; on human 5-HT6 receptor (setting [5]) it was 22%; on human 5-HT1A receptor (setting [6]) it was 15%. In addition, the inhibition at 10 µM was 15% at human 5-HT1A receptor (setting [7]); 15% at human 5-HT1A receptor (setting [8]); 13% at human 5-HT1A receptor (setting [9]); 17% at human 5-HT1A receptor (setting [10]); 0% on human 5-HT7b receptor (setting [11]); -6% at human 5-HT7b receptor (setting [12]). The results for the inhibition at 10 µM at human 5-HT7b receptor (setting [13]), at human 5-HT7b receptor (setting [14]) and on human 5-HT7b receptor (setting [15]) were 0%, -4.53% and -8%, respectively. In addition, the inhibition constant Ki at bovine factor Xa stood at 510 µM.

`O=C(O)c1cnc(-c2ccccc2)s1` [F3]: the inhibition at 10 µM on human 5-HT6 receptor (setting [1]) was determined as 41%; at human 5-HT6 receptor (setting [2]), 41%; at human 5-HT6 receptor (setting [3]), 41%; on human 5-HT6 receptor (setting [4]), 48%; on human 5-HT6 receptor (setting [5]), 34%; at human 5-HT1A receptor (setting [6]), 2.52%. Besides, the inhibition at 10 µM is 2.52% at human 5-HT1A receptor (setting [7]); 2.52% on human 5-HT1A receptor (setting [8]); -2.47% on human 5-HT1A receptor (setting [9]); 7.5% on human 5-HT1A receptor (setting [10]); 0% on human 5-HT7b receptor (setting [11]); -18% on human 5-HT7b receptor (setting [12]). Moreover, the inhibition at 10 µM is 0% at human 5-HT7b receptor (setting [13]), -6% at human 5-HT7b receptor (setting [14]) and -31% on human 5-HT7b receptor (setting [15]). At human thrombin, the Ki was found to be 271 µM.

`O=C1NC(=O)/C(=C\c2cccs2)N1` [H12]: the inhibition at 10 µM at human 5-HT6 receptor (setting [1]) was determined as 32%; at human 5-HT6 receptor (setting [2]), 32%; on human 5-HT6 receptor (setting [3]) it was 32%; on human 5-HT6 receptor (setting [4]), 31%; on human 5-HT6 receptor (setting [5]), 32%; on human 5-HT1A receptor (setting [6]) it was 3.44%. In addition, the inhibition at 10 µM is 3.44% at human 5-HT1A receptor (setting [7]); 3.44% at human 5-HT1A receptor (setting [8]); 7% at human 5-HT1A receptor (setting [9]); -0.195% on human 5-HT1A receptor (setting [10]); 3.77% at human 5-HT7b receptor (setting [11]); 3.77% at human 5-HT7b receptor (setting [12]). Moreover, the figures for the inhibition at 10 µM on human 5-HT7b receptor (setting [13]), at human 5-HT7b receptor (setting [14]) and at human 5-HT7b receptor (setting [15]) were 3.77%, 6% and 1.68%, respectively. Affinity at bovine factor Xa was put at a Ki of 466 µM.

For the molecule `Cc1cc2ccccc2nc1N` [SX-A1], the “V0 / Vi” value at bovine factor Xa (setting [16]) is on record as 1.84; at bovine factor Xa (setting [17]), 1.59; at bovine factor Xa (setting [18]), 1.83; at human thrombin (Thrombin primary screening, substrate 40 µM, cmpd conc 500 µM), 0.95. Further, the “vinit, avrg.” value on bovine factor Xa (setting [16]) was determined as 8.852. Also, the vinit on bovine factor Xa (setting [16]) was 8.688 and 8.852 and 9.02; at bovine factor Xa (setting [17]) it was 22.63 and 23.206 and 22.86; on bovine factor Xa (setting [18]) it was 9.345 and 9.782; at human thrombin (Thrombin primary screening, substrate 40 µM, cmpd conc 500 µM, replicate values), 30.291 and 31.236. Moreover, the Ki on bovine factor Xa (FactorXa, substrate 100 µM, cmpd conc 200 µM, one of two values averaged in Supplementary Data 1, read-out: Ki) is 148 µM; on bovine factor Xa (FactorXa, substrate 200 µM, cmpd conc 200 µM, one of two values averaged in Supplementary Data 1, read-out: Ki), 152 µM.

By Ki is commonly meant a measure of affinity in units of concentration, obtained from inhibition or displacement.
